Patent publication US20040067932A1 (priority 2002, published 2004)
In brackets after ≈: the same amount, converted by molar mass. Counter-ions that a name gives are not always drawn. Like-named read-outs stand apart in the source and are kept apart here.

Legend:
[1] = molecular target: T1, P-gp drug efflux activity in HeL023 cells (Homo sapiens, UniProt P08183); assay: Rhodamine 123 efflux assay, HeL023 cells; type: cell-based; details: for inhibition of P-gp activity (in words): Rh123 efflux, concentrations of Table 11 (MRE3008F20 10 μM); for % of Rh123 negative cells: cells expressing P-gp activity
T1 construct: nearly all (100±1%) the cells expressing high level of functional P-gp; endogenous in cells; host or cells: HeL023 human erythroleukemia cells
T1 sequence (P08183 whole entry): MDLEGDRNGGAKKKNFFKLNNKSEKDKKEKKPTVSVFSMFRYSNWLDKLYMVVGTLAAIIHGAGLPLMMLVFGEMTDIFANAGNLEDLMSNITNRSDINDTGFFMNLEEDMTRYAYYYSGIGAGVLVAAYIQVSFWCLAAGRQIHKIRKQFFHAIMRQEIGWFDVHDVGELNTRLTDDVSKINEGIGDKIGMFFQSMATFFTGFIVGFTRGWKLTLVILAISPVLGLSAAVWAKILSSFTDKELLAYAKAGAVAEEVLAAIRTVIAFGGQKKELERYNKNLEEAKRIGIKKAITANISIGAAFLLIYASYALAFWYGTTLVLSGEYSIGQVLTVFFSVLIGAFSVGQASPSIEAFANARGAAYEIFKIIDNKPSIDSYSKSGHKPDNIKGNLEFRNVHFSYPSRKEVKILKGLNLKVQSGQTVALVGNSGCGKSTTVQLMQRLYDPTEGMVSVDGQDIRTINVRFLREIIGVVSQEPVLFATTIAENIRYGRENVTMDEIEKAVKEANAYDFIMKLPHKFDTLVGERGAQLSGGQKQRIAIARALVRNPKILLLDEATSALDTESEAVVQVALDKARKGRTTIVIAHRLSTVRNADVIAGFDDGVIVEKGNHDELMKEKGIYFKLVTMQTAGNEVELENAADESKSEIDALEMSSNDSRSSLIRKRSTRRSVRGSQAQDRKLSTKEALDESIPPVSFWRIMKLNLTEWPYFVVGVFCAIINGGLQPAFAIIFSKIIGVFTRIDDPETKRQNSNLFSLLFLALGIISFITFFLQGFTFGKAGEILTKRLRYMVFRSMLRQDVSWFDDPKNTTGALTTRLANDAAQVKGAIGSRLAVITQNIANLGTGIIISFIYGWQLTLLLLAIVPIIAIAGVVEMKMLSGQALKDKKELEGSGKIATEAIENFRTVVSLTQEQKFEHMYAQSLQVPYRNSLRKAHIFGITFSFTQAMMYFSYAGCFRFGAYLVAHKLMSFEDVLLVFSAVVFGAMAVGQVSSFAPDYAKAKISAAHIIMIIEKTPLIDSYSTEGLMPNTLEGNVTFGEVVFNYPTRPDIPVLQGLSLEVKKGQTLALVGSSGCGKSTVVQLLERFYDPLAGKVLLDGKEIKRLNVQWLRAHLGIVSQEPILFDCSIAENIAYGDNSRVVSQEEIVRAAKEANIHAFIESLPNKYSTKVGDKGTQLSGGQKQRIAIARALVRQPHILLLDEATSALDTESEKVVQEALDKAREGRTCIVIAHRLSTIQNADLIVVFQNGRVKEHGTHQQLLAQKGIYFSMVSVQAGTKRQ
Protocol: 5×10^5 cells from each subline were loaded with 50 ng/ml of rhodamine 123 for 30 minutes at 37° C. in medium. The cells were washed and resuspended in dye-staining agent free medium for 3 hours at 37° C. to allow rhodamine 123 efflux. The cells were then washed twice and the fluorescence of intracellular rhodamine 123 were analysed with Flow cytometer (residual fluorescence FRES). The fluorescence was compared with loaded cells maintained at 4° C. to prevent drug export (maximal fluorescence FMAX). […] Cells from each subline that were not being exposed to rhodamine 123 were used as negative controls.
Rhodamine 123 (Rh123) retention, a P-gp functional assay, was studied in all cell lines. This assay was performed by incubating cells with Rh123 and determining Rh123 accumulation by measuring its fluorescence. The maximum load of Rh123 (FMAX) was quantified at the end of treatment harvesting the cells and storing them at 4° C. to prevent any active Rh123 efflux . The P-gp drug efflux was allowed incubating Rh123-loaded cells in fresh new medium Rh123-free for 3 hours at 37° C. After this incubation, residual fluorescence (FRES) was measured and compared to FMAX.

A375 cells = assay: Flow cytometry (PI) G2/M accumulation and sub-G1 apoptosis, A375; type: cell-based, human; details: Homo sapiens, A-375, read-out: SEC50 (dose inducing 50% of the enhancing activity to vindesine)
Protocol: A375 and NCTC2544 adherent cells were trypsinized, mixed with floating cells, washed with PBS and permeabilised in 70% (vol/vol) ethanol/PBS solution at 4° C. for at least 24 hours. Jurkat, HeL023 and PBMC cells were centrifuged for 10 minutes at 1000×g. The cell pellet was then resuspended and permeabilised in 70% (vol/vol) ethanol/PBS solution at 4° C. for at least 24 hours. The cells were washed with PBS and the DNA was stained with a PBS solution, containing 20 μg/ml of propidium iodide and 100 μg/ml of RNAse, at room temperature for 30 minutes. Cells were analysed by FACScan (Becton-Dickinson) and the content of DNA was evaluated by the Cell-LISYS program (Becton-Dickinson). Cell distribution among cell cycle phases and apoptotic cells was evaluated as previously described (Secchiero et al., 2001). Briefly, the cell cycle distribution is shown as the percentage of cells containing 2n (G1 phase), 4n (G2 and M phases), 4n>x>2n. DNA amount (S phase) judged by propidium iodide staining. The apoptotic population is the percentage of cells with DNA content lower than 2n.
Cell proliferation and apoptosis are quantified by flow cytometer analysis after propidium-iodide (PI) DNA staining.

[2] = molecular target: T2, human A3 adenosine receptor (Homo sapiens, UniProt P0DMS8); assay: biochemical
T2 sequence (P0DMS8 1-318): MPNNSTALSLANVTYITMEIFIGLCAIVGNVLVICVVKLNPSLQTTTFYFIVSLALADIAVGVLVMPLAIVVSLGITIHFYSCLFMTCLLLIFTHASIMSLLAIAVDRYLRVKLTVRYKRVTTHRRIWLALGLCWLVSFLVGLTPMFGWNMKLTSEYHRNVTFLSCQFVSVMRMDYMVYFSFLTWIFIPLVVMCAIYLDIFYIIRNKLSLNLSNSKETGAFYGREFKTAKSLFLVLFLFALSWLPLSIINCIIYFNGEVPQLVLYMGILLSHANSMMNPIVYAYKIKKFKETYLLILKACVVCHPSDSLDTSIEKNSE

A375 melanoma cells = assay: Colony formation assay of A375 cells; type: cell-based, human; details: 7 days
Protocol: FIG. 2 illustrates colony formation assay of A375 cells. Cells were treated with different drugs and colonies were counted after 7 days. The values represent the mean ±SEM of four independent experiments. D=DMSO (control); T=paclitaxel, 0.75 ng/ml; M=MRE 3008F20, 10 μM; C=CI-IB-MECA, 10 μM; TM=paclitaxel plus MRE 3008F20; TC=paclitaxel plus CI-IB-MECA treated cells. *P<0.01 TM versus T. Analysis was by ANOVA followed by Dunnett's test.;
Control plates received the same volume of DMSO alone. After 7 days of growth at 37° C. in humidified atmosphere containing 5% CO2, the cells were fixed with absolute methanol for 5′ and stained with 1/10 Giemsa/phosphate-buffered saline (PBS) staining solution for 10 minutes. Staining solution was removed and colonies of greater than 30 cells were scored as survivors. For each treatment, six individual wells were scored.
Colony formation assay experiments were performed on A375 melanoma cells treated with increasing concentration of paclitaxel (0.25-75 ng/ml). A3 stimulation is achieved with the selective agonist CI-IB-MECA while A3 blockade is obtained with the selective antagonist MRE 3008F20. […] (FIG. 2)

[3] = test system: human lung carcinoma SKMES; assay: MTT growth inhibitory assay, SKMES; type: cell-based
[4] = test system: human melanoma A375 cell line; assay: MTT growth inhibitory assay, A375; type: cell-based
[5] = test system: human pancreatic cancer Panc-1; assay: MTT growth inhibitory assay, Panc-1; type: cell-based
[6] = test system: human colon carcinoma HT29 cell line; assay: MTT growth inhibitory assay, HT29; type: cell-based; details: for IC50: HT-29; for fold HT29 more refractory than A375: ratio of IC50 HT29 vs A375
[7] = 100 mg/m^2; cited from earlier work
[8] = Human Lung Carcinoma SKMES, read-out: IC50 growth inhibition, agent used separately
[9] = Homo sapiens, A-375, Human Melanoma A375, read-out: IC50 growth inhibition, agent used separately
[10] = Human Pancreatic Cancer Panc-1, read-out: IC50 growth inhibition, agent used separately
[11] = Human Colon Carcinoma HT29, read-out: IC50 growth inhibition, agent used separately
[12] = Homo sapiens, A-375, A375 cell line, read-out: IC50 value
[13] = Homo sapiens, HT29 cell line, read-out: IC50 value

## Nc1nc2ccc(Cl)cc2c2nc(-c3ccco3)nn12 [CGS 15943, 5-amino-9-chloro-2-(furyl) 1,2,4-triazolo[1,5-c]quinazoline, reference compound]
[1]
  inhibition of P-gp activity (in words): much lower effect on P-gp activity
A375 cells
  EC50: 12600 ± 1410 nM
[2]
  Ki: 118 ± 12 nM

## CNC(=O)[C@H]1O[C@@H](n2cnc3c(NCc4cccc(I)c4)nc(Cl)nc32)[C@H](O)[C@@H]1O [CI-IB-MECA]
A375 melanoma cells; 10 μM alone
  colony formation, % of DMSO control: 130%
A375 melanoma cells; 10 μM plus paclitaxel 0.75 ng/ml
  colony formation, % of control, combined with paclitaxel: 85%

## CN(C)c1ccc(NC(=O)Nc2nc3nn(C)cc3c3nc(-c4ccco4)nn23)cc1 [IL-11, N-1-(4-dimethylamino-phenyl)-N′-5-[8-methyl-2-(2-furyl)-pyrazolo[4,3-e]1,2,4-triazolo[1,5-c]pyrimidine]-urea]
[3]; [8]
  IC50: 36300 ± 31500 ng/mL (≈ 87000 nM)
[3]; SKMES, A3 antagonist 0.5 μg/ml
  Enhancement Factor for docetaxel: 1.9
  Enhancement Factor for irinotecan HCL: 1.9
  Enhancement Factor for paclitaxel: 4.2
  Enhancement Factor for vinblastine: 1.6
[4]; A375, A3 antagonist 0.5 μg/ml
  Enhancement Factor for docetaxel: 5.3
  Enhancement Factor for paclitaxel: 3.1
[4]; A375, A3 antagonist 5 μg/ml
  Enhancement Factor for docetaxel: 6.5
[4]; A375, A3 antagonist 5 μg/ml, paclitaxel 0.0001-0.05 μg/ml
  Enhancement Factor for paclitaxel: 9.6
[4]; A375, A3 antagonist 5 μg/ml, paclitaxel 0.0002-0.1 μg/ml
  Enhancement Factor for paclitaxel: 11.5
[4]; [9]
  IC50: 49300 ± 40700 ng/mL (≈ 118000 nM)
[4]; Homo sapiens, A-375, A375, 5 μg/ml, read-out: growth inhibition in the presence of A3 antagonist alone
  inhibition at 5 µg/mL: 30 to 45%
[5]; [10]
  IC50: 8000 ± 5700 ng/mL (≈ 19200 nM)
[5]; Panc-1, A3 antagonist 0.5 μg/ml
  Enhancement Factor for docetaxel: 1.4
[6]; HT29, A3 antagonist 0.5 μg/ml
  Enhancement Factor for docetaxel: 6.4
  Enhancement Factor for doxorubicin: 1.2
  Enhancement Factor for irinotecan HCl: 1.1
  Enhancement Factor for paclitaxel: 2.5
[6]; [11]
  IC50: 56500 ± 8300 ng/mL (≈ 135000 nM)

## Cc1ccc(NC(=O)Nc2nc3nn(C)cc3c3nc(-c4ccco4)nn23)cc1 [MRE 3046F20, 5-N-(4-methylphenyl-carbamoyl)amino-8-methyl-2 (2-furyl)-pyrazolo-[4,3e]-1,2,4-triazolo[1,5-c]pyrimidine]
[1]
  inhibition of P-gp activity (in words): strong inhibitors of P-gp activity
A375 cells
  EC50: 570 ± 60 nM
[2]
  Ki: 3 ± 0.3 nM

## CCCn1cc2c(nc(NC(=O)Nc3ccccc3)n3nc(-c4ccco4)nc23)n1 [MRE 3055F20, 5-N-(4-phenylcarbamoyl)amino-8-propyl-2 (2furyl)-pyrazolo[4,3e]-1,2,4triazolo-[1,5c]pyrimidine]
[1]
  inhibition of P-gp activity (in words): strong inhibitors of P-gp activity
A375 cells
  EC50: 310 ± 30 nM
[2]
  Ki: 1.4 ± 0.2 nM

## Nc1nc(NCCc2ccc(O)cc2)nc2nc(-c3ccco3)nn12 [ZM 241385, 4-(2-[7-amino-2-(2-furyl)-[1,2,4]triazolo[2,3-a][1,3,5]triazin-5-ylamino]ethyl)phenol, reference compound]
[1]
  inhibition of P-gp activity (in words): much lower effect on P-gp activity
A375 cells
  EC50: 25000 ± 2230 nM

## CC(=O)O[C@@]12CO[C@@H]1C[C@H](O)[C@@]1(C)C(=O)[C@H](O)C3=C(C)[C@@H](OC(=O)[C@H](O)[C@@H](NC(=O)OC(C)(C)C)c4ccccc4)C[C@@](O)([C@@H](OC(=O)c4ccccc4)[C@H]21)C3(C)C [docetaxel, reference compound]
[3]; Homo sapiens, SKMES, docetaxel 0.00001-0.005 μg/ml, alone, read-out: IC50 of docetaxel, A3 antagonist none
  IC50: 0.47 ng/mL (≈ 0.582 nM)
[3]; [8]
  IC50: 0.84 ± 0.37 ng/mL (≈ 1.04 nM)
[4]; [9]
  IC50: 0.2 ± 0.07 ng/mL (≈ 0.248 nM)
[5]; Homo sapiens, Panc-1, docetaxel 0.00001-0.005 μg/ml, alone, read-out: IC50 of docetaxel, A3 antagonist none
  IC50: 0.68 ng/mL (≈ 0.842 nM)
[5]; [10]
  IC50: 0.37 ± 0.31 ng/mL (≈ 0.458 nM)
[6]; [11]
  IC50: 0.24 ± 0.05 ng/mL (≈ 0.297 nM)
[6]; Homo sapiens, HT29, docetaxel 0.00001-0.005 μg/ml, alone, read-out: IC50 of docetaxel, A3 antagonist none
  IC50: 0.018 ng/mL (≈ 0.0223 nM)
[7]
  acute hypersensitivity reaction, % of patients: 13%
  severe hypersensitivity reaction, % of patients: 1.2%

## COc1cccc2c1C(=O)c1c(O)c3c(c(O)c1C2=O)C[C@@](O)(C(=O)CO)C[C@@H]3O[C@H]1C[C@H](N)[C@H](O)[C@H](C)O1 [doxorubicin, reference compound]
[4]; [12]
  IC50: 6.4 ng/mL (≈ 11.8 nM)
[6]; Homo sapiens, HT29, doxorubicin 0.0002-0.1 μg/ml, alone, read-out: IC50 of doxorubicin, A3 antagonist none
  IC50: 460 ng/mL (≈ 846 nM)
[6]; [13]
  IC50: 211 ng/mL (≈ 388 nM)
[6]
  fold HT29 more refractory than A375: approximately 30 fold

## CCCn1cc2c(nc(NC(=O)Nc3ccccc3)n3nc(-c4ccco4)nc23)n1 [drawing 9]
[1]; 10 μM
  % of Rh123 negative cells: 0.8 ± 0.2%

## CCCn1cc2c(nc(NC(=O)Nc3ccccc3)n3nc(-c4ccco4)nc23)n1 [drawing 10]
[1]; 10 μM
  % of Rh123 negative cells: 1.0 ± 0.2%

## Cc1ccc(NC(=O)Nc2nc3nn(C)cc3c3nc(-c4ccco4)nn23)cc1 [drawing 11]
[1]; 10 μM
  % of Rh123 negative cells: 22.0 ± 1.0%

## Nc1nc2ccc(Cl)cc2c2nc(-c3ccco3)nn12 [drawing 12, reference compound]
[1]; 70 μM
  % of Rh123 negative cells: 87.1 ± 1.0%

## Nc1nc(NCCc2ccc(O)cc2)nc2nc(-c3ccco3)nn12 [drawing 13, reference compound]
[1]; 70 μM
  % of Rh123 negative cells: 93.0 ± 1.1%

## CCc1c2c(nc3ccc(OC(=O)N4CCC(N5CCCCC5)CC4)cc13)-c1cc3c(c(=O)n1C2)COC(=O)[C@]3(O)CC [irinotecan HCL, reference compound]
[3]; Homo sapiens, SKMES, irinotecan HCL 0.04-20 μg/ml, alone, read-out: IC50 of irinotecan HCL, A3 antagonist none
  IC50: 1170 ng/mL
[3]; [8]
  IC50: 1230 ± 360 ng/mL
[4]; [9]
  IC50: 880 ± 190 ng/mL
[5]; [10]
  IC50: 1120 ± 290 ng/mL
[6]; [11]
  IC50: 1050 ± 70 ng/mL
[6]; Homo sapiens, HT29, irinotecan HCl 0.04-20 μg/ml, alone, read-out: IC50 of irinotecan HCl, A3 antagonist none
  IC50: 960 ng/mL

## O=C1c2c(O)ccc(O)c2C(=O)c2c(NCCNCCO)ccc(NCCNCCO)c21 [mitoxantrone, reference compound]
[4]; [12]
  IC50: 3.2 ng/mL (≈ 7.2 nM)
[6]; [13]
  IC50: 100 ng/mL (≈ 225 nM)
[6]
  fold HT29 more refractory than A375: approximately 30 fold

## CC[C@]1(O)C[C@@H]2CN(CCc3c([nH]c4ccccc34)[C@@](C(=O)OC)(c3cc4c(cc3OC)N(C)[C@H]3[C@@](O)(C(=O)OC)[C@H](OC(C)=O)[C@]5(CC)C=CCN6CC[C@]43[C@@H]65)C2)C1 [vinblastine, reference compound]
[3]; Homo sapiens, SKMES, vinblastine 0.00001-0.005 μg/ml, alone, read-out: IC50 of vinblastine, A3 antagonist none
  IC50: 1.5 ng/mL (≈ 1.85 nM)
[3]; [8]
  IC50: 1.9 ± 0.9 ng/mL (≈ 2.34 nM)
[4]; [9]
  IC50: 1.6 ng/mL (≈ 1.97 nM)
[5]; [10]
  IC50: 1.8 ± 0.8 ng/mL (≈ 2.22 nM)
[6]; [11]
  IC50: 1.9 ± 0.4 ng/mL (≈ 2.34 nM)
